From US20170319562A1, “Compositions and Methods for Extended Therapy with Aminopyridines” (Acorda Therapeutics, Inc., priority 2009, published 2017)
Values joined by “and” are separate entries in the source; they are usually repeats but may differ in a detail not shown here. Equal entries are not always repeated.

Legend:
[1] = tested on: normal adult myelinated axons; details: cited from earlier work
[2] = Single 20 mg intravenous dose, volume of distribution; assay type: in vivo; details: plasma
Text: Measurable levels are present in the saliva.

[3] = tested on: patients with multiple sclerosis; assay: MS-F204 Phase 3 double-blind placebo-controlled study
Procedure: Each of two Phase 3 studies (MS-F203 and MS-F204) was a parallel group, randomized, double-blind study comparing 4-aminopyridine-SR 10 mg b.i.d. with placebo. […] The 12-item Multiple Sclerosis Walking Scale and the Subject Global Impression and Clinician Global Impression were used to validate the clinical meaningfulness of the Timed-Walk response criterion. Secondary efficacy variables included walking speed, Lower Extremity Manual Muscle Test (LEMMT) score and the Ashworth spasticity score, the latter two averaged across eight and six lower extremity muscle groups, respectively. Duration of double-blind treatment on which efficacy was based was 14 weeks in the first study and 8 weeks in the second study. A two-week single blind placebo run-in period preceded the double-blind period.
In the MS-F204 study, the primary efficacy variable was also Responder status, based on consistent improvement in walking speed on the T25FW. A Timed-Walk Responder was defined as a patient with a faster walking speed for at least three of the first four double-blind visits as compared to the maximum walking speed for any of the pre-treatment visits and the post-treatment visit.
The secondary efficacy variable was average change from baseline in LEMMT score during the double-blind period, comparing 4-aminopyridine-treated Timed-Walk Responders and Non-Responders separately against the placebo-treated group. Other measures, the MSWS-12, SGI, CGI and Ashworth score, were included only for the purposes of a pooled analysis and comparison with the results of the other two trials.
This study in this Example was a 39 center, double-blind trial in patients with definite multiple sclerosis of any course type. Participants were randomized to 9 weeks of treatment with 4-aminopyridine (10 mg twice daily; n=120) or placebo (n=119). Response was defined as consistent improvement on the Timed 25-Foot Walk, with percentage of Timed Walk Responders (TWR) in each treatment group as the primary outcome. The last on-treatment visit provided data from 8-12 h post-dose, to examine maintenance of effect.
Study Design. This was a randomized, double-blind, placebo-controlled trial, as depicted in FIG. 14. Patients underwent screening without receiving any study medication and eligible patients returned one week later (Visit 0, see FIG. 14). Patients then entered a two-week, single-blind, placebo run-in period; Visit 1 occurred at the end of the first week of placebo run-in and Visit 2 at the end of the second week. Patients were instructed to take one blinded tablet (supplied in appropriate quantities at each clinic visit) every 12 hours during the treatment phase.
At Visit 2, patients were randomized equally to one of two treatment groups, sustained release 4-aminopyridine (4-aminopyridine-SR, 10 mg twice daily) or placebo, using a predetermined, computer-generated randomization schedule, blocked and stratified by treatment-site and pre-numbered treatment kits. Independent statistical, packaging and distribution contractors were used to maintain the blind for all other personnel.
Following randomization, patients returned every two weeks for evaluation at Visits 3-6. The patients were then instructed to return in one week for Visit 7 and to arrange the timing of their last dose of study medication such that the clinic visit would allow for assessments to be made between 10 and 12 hours after this last dose was taken. Following Visit 7, patients began a two-week period of no treatment, returning for follow-up assessments at Visit 8.

[4] = oral, non-sustained release; cited from earlier work
[5] = tested on: patients with multiple sclerosis; assay: MS-F203EXT open-label extension study; assay type: in vivo, human; details: for patients classified as Extension Timed Walk Responders: cut-off Jul. 31, 2008
Procedure: Data were presented by study pair (parent and extension).
In the MS-F203EXT study, which allowed patients to enroll directly from the parent study MS-F203, open-label 4-aminopyridine-SR 10 mg b.i.d. was dispensed at visit 0 (a separate screening visit was only required if the screening visit could not be combined with the Final visit for MS-F203); visit 1 was scheduled to occur two weeks after visit 0, visit 2 at 12 weeks after visit 1, visit 3 at 12 weeks after visit 2. The planned interval between subsequent visits was 26 weeks. Therefore, at visit 4, a patient should have been on 4-aminopyridine-SR treatment for approximately one year.
This Example considers efficacy data collected from the three ongoing, open label extension studies (MS-F202EXT, MS-F203EXT, MS-F204EXT). The primary focus was the Timed 25-Foot Walk, assessed in a manner consistent with its evaluation in the parent double-blind studies. This included the determination of response to treatment using a criterion equivalent to the Timed Walk Response criterion used in the parent studies. […] The clinical meaningfulness of this criterion was evaluated in terms of the Subject and Clinician Global Impression scores recorded during the extension studies.
In the extension studies, a “Timed Walk Extension Responder” was defined as a patient who achieved a faster walking speed on the T25FW for the majority of on-drug treatment visits during the first year of the study (Visits 1-4 for MS-F203EXT and MS-F204EXT) than the maximum walking speed previously measured for the patient during any off-drug visits in either the parent study or in the extension study.

Nc1ccncc1 [4-aminopyridine]
concentrations causing gradual depolarization of the axon resting potential [1]: above 1 mM | concentrations at which the action potential shows little or no sensitivity ([1]; normal adult myelinated axons): below 100 μM | Vd [2]: 2.6 L/kg | Mantel-Haenszel Odds Ratio for Timed Walk Response vs placebo ([3]; 10 mg b.i.d.): 8.14 | Timed-Walk Responder rate ([3]; 10 mg b.i.d.): 42.9% | plasma concentration below which there is a marked reduction in walking speed improvement ([3]; FIG. 27): below 13 ng/mL | plasma concentration below which there is a reduction in walking speed improvement ([3]; FIG. 27): below 15 ng/mL | average change from baseline in walking speed (Visits 3-6) ([3]; Timed Walk Non-Responders): 0.12 ft/sec | average improvement in walking speed from baseline, double-blind efficacy period (Visits 3-6) ([3]; Timed Walk Non-responders, 10 mg b.i.d.): 6.0% | average change from baseline in walking speed (Visits 3-6) ([3]; Timed Walk Responders): 0.51 ft/sec | improvement from baseline walking speed at Visit 7, first evaluation (last on-treatment visit) ([3]; Timed Walk Responders): 25.7% | average improvement in walking speed from baseline, double-blind efficacy period (Visits 3-6) ([3]; Timed Walk Responders, 10 mg b.i.d.): 24.7% and 25% | mean improvement in walking speed at Visit 7 ([3]; Timed Walk Responders, 9-10 h post dose): 25.5% | mean improvement in walking speed at Visit 7 ([3]; Timed Walk Responders, 10-11 h post dose): 25.3% | mean improvement in walking speed at Visit 7 ([3]; Timed Walk Responders, 11-12 h post dose): 20.1% and 20% | reduction of average plasma concentration at the first assessment at Visit 7 ([3]; human, in vivo, 10 mg b.i.d.): approximately 25% | time of peak plasma concentrations after dosing [4]: ≤ 1 h | decline in walking speed from the original double-blind baseline ([5]; Extension Timed Walk Non-Responders, end of the second year): approximately 8% | improvement in walking speed over the original baseline ([5]; Extension Timed Walk Responders, Visit 6): more than 20% | mean walking speed faster than double-blind baseline at each extension visit ([5]; Extension Timed Walk Responders, first year): more than 30% | patients classified as Extension Timed Walk Responders ([5]; all patients): 24.9% | Extension Timed Walk Response rate within year ([5]; double-blind Non-Responders, year 1): 19.7% | Extension Timed Walk Response rate within year ([5]; double-blind Non-Responders, year 2): 17.5% | Extension Timed Walk Response rate within year ([5]; double-blind Responders, year 1): 42.9% | Extension Timed Walk Response rate within year ([5]; double-blind Responders, year 2): 36.1% | patients classified as Extension Timed Walk Responders ([5]; parent-study treated Timed Walk Non-Responders): 19.7% | patients classified as Extension Timed Walk Responders ([5]; parent-study treated Timed Walk Responders): 41.4% | Extension Timed Walk Response rate within year ([5]; placebo treated in parent study, year 1): 16.2% | Extension Timed Walk Response rate within year ([5]; placebo treated in parent study, year 2): 20.8% | patients classified as Extension Timed Walk Responders ([5]; placebo-treated in parent study): 17.7%
